Measured values as given in patent publication US7288537B2, “Azetidine derivatives as CCR-3 receptor antagonists” (Novartis AG, priority 2002, dated 2007).

Experiments:
human CCR-3 = target: T1, human CCR-3 (Homo sapiens, UniProt P51677); experiment: CCR-3 binding assay (SPA, [125I]-human eotaxin); conditions: membranes of RBL-2H3 cells stably expressing CCR3, 4 hours at room temperature, read-out: IC50, inhibition of binding of human eotaxin to human CCR-3
T1 construct: expressed in transfected cells; membranes
T1 sequence (P51677 1-355): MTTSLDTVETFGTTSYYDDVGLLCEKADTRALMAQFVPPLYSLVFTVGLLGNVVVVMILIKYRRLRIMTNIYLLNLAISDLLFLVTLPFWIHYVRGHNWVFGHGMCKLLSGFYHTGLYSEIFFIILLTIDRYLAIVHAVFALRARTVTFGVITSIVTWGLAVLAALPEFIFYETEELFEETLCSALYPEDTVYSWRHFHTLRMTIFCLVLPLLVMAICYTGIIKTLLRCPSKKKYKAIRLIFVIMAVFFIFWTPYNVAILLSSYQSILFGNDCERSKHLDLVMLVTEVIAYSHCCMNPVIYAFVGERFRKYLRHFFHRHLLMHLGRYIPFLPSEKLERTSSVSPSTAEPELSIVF
Method: In this assay the effect of agents of the invention on the binding of human eotaxin to human CCR-3 is determined. Recombinant cells expressing human CCR-3 are captured by wheatgerm agglutinin (WGA) polyvinyltoluidene (PVT) SPA beads (available from Amersham), through a specific interaction between the WGA and carbohydrate residues of glycoproteins on the surface of the cells. [^125I]-human eotaxin (available from Amersham) binds specifically to CCR-3 receptors bringing the [^125I]-human eotaxin in close proximity to the SPA beads. Emitted â-particles from the [^125I]-human eotaxin excite, by its proximity, the fluorophore in the beads and produce light.
Preparation of Assay Buffer: 5.96 g HEPES and 7.0 g sodium chloride are dissolved in distilled water and 1M aqueous CaCl2 (1 ml) and 1M aqueous MgCl2 (5 ml) are added. The pH is adjusted to 7.6 with NaOH and the solution made to a final volume of 1 L using distilled water. 5 g bovine serum albumin and 0.1 g sodium azide are then dissolved in the solution and the resulting buffer stored at 4° C. A Complete™ protease inhibitor cocktail tablet (available from Boehringer) is added per 50 ml of the buffer on the day of use.
Preparation of Homogenisation Buffer: Tris-base (2.42 g) is dissolved in distilled water, the pH of the solution is adjusted to 7.6 with hydrochloric acid and the solution is diluted with distilled water to a final volume of 1 l. The resulting buffer is stored at 4° C. A Complete™ protease inhibitor cocktail tablet is added per 50 ml of the buffer on the day of use.
Preparation of membranes: Confluent rat basophil leukemia (RBL-2H3) cells stably expressing CCR3 are removed from tissue culture flasks using enzyme-free cell dissociation buffer and resuspended in phosphate-buffered saline. The cells are centrifuged (800 g, 5 minutes), the pellet resuspended in ice-cold homogenisation buffer using 1 ml homogenisation buffer per gram of cells and incubated on ice for 30 minutes. The cells are homogenised on ice with 10 strokes in a glass mortar and pestle. The homogenate is centrifuged (800 g, 5 minutes, 4° C.), the supernatant further centrifuged (48,000 g, 30 minutes, 4° C.) and the pellet redissolved in Homogenisation Buffer containing 10% (v/v) glycerol. The protein content of the membrane preparation is estimated by the method of Bradford (Anal. Biochem. (1976) 72:248) and aliquots are snap frozen and stored at −80° C.
The assay is performed in a final volume of 250 μl per well of an Optiplate™ microplate (ex Canberra Packard). To selected wells of the Optiplate™ are added 50 μl of solutions of a test compound in Assay Buffer containing 5% DMSO (concentrations from 0.01 nM to 10 μM). To determine total binding, 50 μl of the Assay Buffer containing 5% DMSO is added to other selected wells. To determine non-specific binding, 50 μl of 100 nM human eotaxin (ex R&D Systems) in Assay Buffer containing 5% DMSO is added to further selected wells. To all wells are added 50 μl [^125I]-Human eotaxin (ex Amersham) in Assay Buffer containing 5% DMSO at a concentration of […] (to give a final concentration of […]), 50 μl of WGA-PVT SPA beads in Assay Buffer (to give a final concentration of 1.0 mg beads per well) and 100 μl of the membrane preparation at a concentration of 100 μg protein in Assay Buffer (to give a final concentration of 10 μg protein per well). The plate is then incubated for 4 hours at room temperature. The plate is sealed using TopSeal-S™ sealing tape (ex Canberra Packard) according to the manufacturers instructions. The resulting scintillations are counted using a Canberra Packard TopCount™ scintillation counter, each well being counted for 1 minute. The concentration of test compound at which 50% inhibition occurs (IC50) is determined from concentration-inhibition curves in a conventional manner.

histamine H1 = histamine H1 (Homo sapiens, UniProt P35367); experiment: histamine H1 antagonism
[1] = target: alpha-1 adrenergic receptor; experiment: alpha-1 adrenergic receptor radioligand binding assay ([125I]-HEAT, cerebral cortex membranes); conditions: rat cerebral cortex membranes; radioligand used at 40 pM
Method: Cerebral cortices from male Sprague-Dawley rats (175-200 g) are dissected and homogenised in 10 volumes of ice cold 0.32 M sucrose (containing 1 mM MgCl2 dihydrate and 1 mM K2HPO4) with a glass/teflon homogeniser. The membranes are centrifuged at 1000×g for 15 miN, the pellet discarded and the centrifugation repeated. The supernatants are pooled and centrifuged at 18,000×g for 15 minutes. The pellet is osmotically shocked in 10 volumes of water and kept on ice for 30 minutes. The suspension is centrifuged at 39,000×g for 20 minutes, resuspended in Krebs-Henseleit buffer pH 7.4 (1.17 mM MgSO4 anhydrous, 4.69 mM KCl, 0.7 mM K2HPO4 anhydrous, 0.11 M NaCl, 11 mM D-glucose and 25 mM NaHCO3) containing 20 mM Tris, and kept for 2 days at −20° C. The membranes are then thawed at 20-23° C., washed three times with Krebs-Henseleit buffer by centrifugation at 18,000×g for 15 minutes, left overnight at 4° C. and washed again three times. The final pellet is resuspended with a glass/teflon homogeniser in 125 ml/100 membranes in the same buffer. […]
The resulting membranes are subjected to a radioligand binding assay. […] Following drying of the plates for 3 h. at 50° C., 40 μl of Microscint 20 is added to each well, the plates incubated at room temperature for a further 20 minutes and the retained radioactivity quantified in a Packard TopCount NXT™ scintillation counter. […]

Sequence of histamine H1 (P35367 whole entry): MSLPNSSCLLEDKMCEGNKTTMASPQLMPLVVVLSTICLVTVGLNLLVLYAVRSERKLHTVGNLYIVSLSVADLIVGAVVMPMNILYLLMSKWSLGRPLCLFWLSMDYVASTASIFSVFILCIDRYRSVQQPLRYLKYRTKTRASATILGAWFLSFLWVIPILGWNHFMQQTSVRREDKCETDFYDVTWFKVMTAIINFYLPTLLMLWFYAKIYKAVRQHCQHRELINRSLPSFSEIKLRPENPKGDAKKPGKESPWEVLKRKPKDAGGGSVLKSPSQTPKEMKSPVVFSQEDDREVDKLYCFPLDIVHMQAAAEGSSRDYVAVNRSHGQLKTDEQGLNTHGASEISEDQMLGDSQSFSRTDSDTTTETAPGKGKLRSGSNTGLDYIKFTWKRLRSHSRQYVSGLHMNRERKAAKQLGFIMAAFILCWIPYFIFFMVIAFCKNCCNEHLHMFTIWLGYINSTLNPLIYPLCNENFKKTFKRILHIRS

| IC50 (human CCR-3) [nM] | histamine H1 antagonist activity (histamine H1) | Kd [1] [nM] | SMILES |
| --- | --- | --- | --- |
| 7 | – | – | COc1cc(NC(=O)N[C@H](CO)CCN2CC(Oc3ccc(Cl)cc3)C2)cc(OC)c1 [Example 26, 1-{(S)-3-[3-(4-Chloro-phenoxy)-azetidin-1-yl]-1-hydroxymethyl-propyl}-3-(3,5-dimethoxy-phenyl)-urea] |
| 5 | – | – | Cn1nc(C2CC2)cc1NC(=O)N[C@H](CO)CCN1CC(Oc2ccc(Cl)cc2)C1 [Example 83, 1-{(S)-3-[3-(4-Chloro-phenoxy)-azetidin-1-yl]-1-hydroxymethyl-propyl}-3-(5-cyclopropyl-2-methyl-2H-pyrazol-3-yl)-urea] |
| 6 | – | – | CCc1cc(NC(=O)N[C@H](CO)CCN2CC(Oc3ccc(Cl)cc3)C2)n(C)n1 [Example 88, 1-{(S)-3-[3-(4-Chloro-phenoxy)-azetidin-1-yl]-1-hydroxymethyl-propyl}-3-(5-ethyl-2-methyl-2H-pyrazol-3-yl)-urea] |
| 7 | – | – | CCc1nnc(NC(=O)N[C@H](CO)CCN2CC(Oc3ccc(Cl)cc3)C2)s1 [Example 99, 1-{(S)-3-[3-(4-Chloro-phenoxy)-azetidin-1-yl]-1-hydroxymethyl-propyl}-3-(5-ethyl-[1,3,4]thiadiazol-2-yl)-urea] |
| 22 | – | – | COc1cc(NC(=O)N[C@@H](CCN2CC(Oc3ccc(Cl)cc3)C2)COC(C)=O)cc(OC)c1 [Example 122, Acetic acid (S)-4-[3-(4-chloro-phenoxy)-azetidin-1-yl]-2-[3-(3,5-dimethoxy-phenyl)-ureido]-butyl ester] |
| 11 | histamine H1 antagonists | – | CCc1nnc(NC(=O)NCCCN2CC(Cc3ccc(Cl)cc3)C2)s1 [Example 190, 1-{3-[3-(4-chloro-benzyl)-azetidin-1-yl]-propyl}-3-(5-ethyl-[1,3,4]thiadiazol-2-yl)-urea] |
| – | – | 0.0589 ± 0.0187 | O=C1c2ccccc2CCC1CNCCc1ccc(O)c(I)c1 (centres unmarked) [[^125I]-HEAT] |
